Columns and labels:
Type in all cases: in vivo
Set-up in all cases: key: compounds were considered to be active when, at a concentration of 500 ppm or less, they had an activity on the harmful organisms of 50% or more
[1] = system: Diabrotica undecimpunctata; assay: Example AC: treated soil, southern corn rootworm eggs mortality; settings: 500 ppm or less, eggs added after 0d, 21d and 42d, after 2 weeks
Method: An aqueous solution of the formulated compound to be examined was mixed with soil. After 0d, 21d and 42d, eggs of the southern corn rootworm (Diabrotica undecimpunctata) were placed together with 2 pre-swollen maize corns into a dish, covered with the treated soil and moisted with 10 ml of water. Soil and eggs were placed in a greenhouse (23° C., 60% relative atmosphere humidity). After 2 weeks of storage, the effect of the compound on the eggs and any larvae hatched therefrom was determined (mortality). The following examples were active: 70, 60, 197, 204.

[2] = system: Trialeurodes vaporariorum; assay: Example AD: bush beans sprayed, white fly larvicidal action; settings: 500 ppm or less; bush beans sprayed after hatching; after 11 days
Method: For oviposition, bush beans (Phaseolus vulgaris) were populated for 48 hours with adults of the white fly (Trialeurodes vaporariorum). After the larvae had hatched, the plants were sprayed to run-off point with an aqueous solution of the formulated compound to be examined. After 11 days, the larvicidal action was determined. The following examples were active: 1036, 70, 60, 1040, 197.

Spodoptera littoralis = assay: Example G: treated L2 larvae and insect diet, Egyptian cotton leafworm mortality; settings: 500 ppm or less, after 6 days
Method: A Petri dish whose bottom was covered with filter paper and which contained about 5 ml of insect diet is prepared. Five L2 larvae of the Egyptian cotton leafworm (Spodoptera littoralis) were counted into a small beaker. 200 μl of an aqueous solution of the formulated preparation to be examined were pipetted into the beaker. The treated larvae were then poured into the Petri dish, and a further 200 μl of the aqueous solution were distributed over the insect diet. The Petri dish was closed and then stored at about 25° C. in a climatized chamber. After 6 days of storage, the effect of the compound on the larvae was determined (mortality). The compounds of the following examples were active: 29, 70, 60, 159, 1005, 1040, 1042, 1044, 1045, 1046, 1047.

Spodoptera exigua [3] = assay: Example Z: cotton leaves with larvae sprayed, sugar beet armyworm mortality; settings: 500 ppm or less; cotton leaves populated then sprayed; L2 larvae; after 4 days
Method: Cotton leaves were populated with 5 L2 larvae of the sugar beet armyworm (Spodoptera exigua) and then sprayed with an aqueous solution of the formulated compound to be examined. After 4 days of storage at about 23° C., the mortality among the larvae was determined. The following examples were active: 1036, 70, 60, 1047, 197.

Spodoptera exigua [4] = assay: Example X: dipped freeze-dried diet cube, sugar beet armyworm L2 larvae mortality; settings: 500 ppm or less, after 4 days
Method: Insect diet (as freeze-dried cube) was dipped into an aqueous solution of the formulated compound to be examined and then placed into a Petri dish. 10 L2 larvae of the sugar beet armyworm (Spodoptera exigua) were then added. The Petri dish was then closed with a lid. After 4 days of storage at about 23° C., the mortality among the larvae was determined. The following examples were active: 1036, 60.

Heliothis virescens [5] = assay: Example AH: sprayed cotton leaves, antifeeding activity on tobacco budworm larvae; settings: 500 ppm or less, L2 larvae, after 2, 3 and 4 days
Method: Cotton leaves were placed into a Petri dish, sprayed with an aqueous solution of the formulated compound to be examined and, after drying, populated with 5 L2 larvae of the American tobacco budworm (Heliothis virescens). After 2, 3 and 4 days of storage at about 25° C., the antifeeding activity of the compound on the larvae was determined. The following examples were active: 1036, 70, 60.

[6] = system: Diabrotica undecimpunctata; assay: Example C: corn rootworm eggs with maize corn, mortality; settings: 500 ppm or less; 4-5-day-old eggs; after 6 days
[7] = system: Leptinotarsa decemlineata; assay: Example AI: sprayed potato plant, repellent effect on Colorado beetle larvae; settings: 500 ppm or less; sprayed plant with untreated plant in a cage; after 1 and 3 days
Excerpt: A potato plant was sprayed with an aqueous solution of the formulated compound to be examined and, together with an untreated plant, placed in a cage. The cage was populated with 100 larvae of the Colorado beetle (Leptinotarsa decemlineata). […] The following examples were active: 1036, 70, 60.

Heliothis virescens [8] = assay: Example B: tobacco budworm eggs on filter paper/insect diet, mortality; settings: 500 ppm or less; 24-hour-old eggs dipped, diet treated; after 6 days
Plutella maculipennis = assay: Example K: sprayed white cabbage leaf, diamondback moth larvae mortality; settings: 500 ppm or less, after 3 days
Method: A white cabbage leaf was sprayed with an aqueous solution of the formulated compound to be examined. After the spray coating had dried, the treated leaf was populated with larvae of the diamondback moth (Plutella maculipennis). After 3 days of storage at about 23° C., the effect of the compound on the larvae was determined (mortality). The compounds of the following examples were active: 60, 70, 1002, 1004, 1005, 1036, 197.

[9] = system: Leptinotarsa decemlineata; assay: Example L: potato leaves and larvae sprayed, Colorado beetle mortality; settings: 500 ppm or less, after 4 days
Method: Potato leaves were populated with larvae of the Colorado beetle (Leptinotarsa decemlineata). Leaves and larvae were then sprayed with an aqueous solution of the formulated compound to be examined. After 4 days of storage at about 25° C., the effect of the compound on the larvae was determined (mortality). The compounds of the following examples were active: 60, 70, 1002, 1004, 1005, 1036, 1047, 197.

CC1CCN(CC#Cc2cc(C(F)(F)F)cc(C(F)(F)F)n2)CC1 [Example 60]
active: effect on the eggs and hatched larvae (mortality) [1] | larvicidal action [2] | effect on the larvae (mortality) (Spodoptera littoralis) | mortality among the larvae (Spodoptera exigua [3]) | mortality among the larvae (Spodoptera exigua [4]) | antifeeding activity on the larvae (Heliothis virescens [5]) | effect on the eggs and hatched larvae (mortality) [6] | repellent effect on the larvae [7] | effect on the eggs and hatched larvae (mortality) (Heliothis virescens [8]) | effect on the larvae (mortality) (Plutella maculipennis) | effect on the larvae (mortality) [9]
